Assay results published in ChEMBL document CHEMBL3784998, “Synthesis and biological evaluation ofd-gluconhydroximo-1,5-lactam and its oxime-substituted derivatives as pharmacological chaperones for the treatment of Gaucher disease” (Medchemcomm, 2016).
Where a chain is given by its changes, count along the chain named. Calls of active or inactive are those of the source. The calls are words filed in the database; no cut-off is given here.

How the values were obtained:
[1] = system: T1, Lysosomal acid glucosylceramidase (Homo sapiens), P04062 [N409S]; assay: Pharmacological chaperone activity at beta-glucocerebrosidase N370S mutant in Gaucher disease patient-derived lymphoblasts with GCase N370S mutant assessed as increase in enzyme activity at 3.125 to 100 uM after 3 days by fluorimetric analysis relative to control
T1 sequence (whole entry): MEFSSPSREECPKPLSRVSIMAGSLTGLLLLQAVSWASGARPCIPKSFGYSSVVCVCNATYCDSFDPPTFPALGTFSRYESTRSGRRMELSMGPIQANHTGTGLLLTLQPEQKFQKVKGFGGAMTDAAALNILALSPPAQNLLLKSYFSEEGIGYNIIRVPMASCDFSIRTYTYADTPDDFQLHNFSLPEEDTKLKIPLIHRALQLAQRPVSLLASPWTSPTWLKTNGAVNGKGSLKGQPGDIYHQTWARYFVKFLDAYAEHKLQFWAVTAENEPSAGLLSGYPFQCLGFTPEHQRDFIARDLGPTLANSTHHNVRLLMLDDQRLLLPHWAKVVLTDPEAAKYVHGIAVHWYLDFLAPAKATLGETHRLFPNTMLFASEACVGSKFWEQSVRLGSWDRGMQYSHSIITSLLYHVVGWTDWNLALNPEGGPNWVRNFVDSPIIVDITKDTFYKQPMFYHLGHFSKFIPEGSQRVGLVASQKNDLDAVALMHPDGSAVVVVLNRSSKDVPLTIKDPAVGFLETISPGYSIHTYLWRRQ

[2] = molecular target: T2, Lysosomal acid glucosylceramidase (Homo sapiens, UniProt P04062); assay: Inhibition of human recombinant imiglucerase using 4-MU-beta-D-Glu as substrate at pH 7.0 after 30 mins by fluorometric analysis
T2 sequence (P04062 whole entry): T1 sequence (whole entry) with S409N

[3] = molecular target: T2, Lysosomal acid glucosylceramidase; assay: Inhibition of human recombinant imiglucerase using 4-MU-beta-D-Glu as substrate at pH 5.2 after 30 mins by fluorometric analysis
[4] = molecular target: T2, Lysosomal acid glucosylceramidase; assay: Competitive inhibition of human recombinant imiglucerase using 4-MU-beta-D-Glu as substrate at pH 5.2 after 30 mins by fluorometry based Lineweaver-Burk plot analysis
[5] = Inhibition of almond beta glucosidase; set-up: species or system Prunus dulcis
[6] = molecular target: Beta-galactosidase (Escherichia coli K-12, UniProt P00722); assay: Inhibition of Escherichia coli beta-galactosidase
[7] = Cytotoxicity against wild type human CCC-ESF1 cells at 100 uM after 24 hrs by MTT assay; assay type: cell-based; settings: ccc-esf1, 24 h
[8] = molecular target: Alpha-galactosidase (Coffea arabica, UniProt Q42656); assay: Inhibition of green coffee bean alpha-galactosidase
[9] = system: T1, Lysosomal acid glucosylceramidase (Homo sapiens), P04062 [N409S]; assay: Pharmacological chaperone activity at beta-glucocerebrosidase N370S mutant in Gaucher disease patient-derived lymphoblasts with GCase N370S mutant assessed as increase in enzyme activity at 10 uM after 3 days by fluorimetric analysis relative to control

Alpha-galactosidase, sequence (Q42656 whole entry): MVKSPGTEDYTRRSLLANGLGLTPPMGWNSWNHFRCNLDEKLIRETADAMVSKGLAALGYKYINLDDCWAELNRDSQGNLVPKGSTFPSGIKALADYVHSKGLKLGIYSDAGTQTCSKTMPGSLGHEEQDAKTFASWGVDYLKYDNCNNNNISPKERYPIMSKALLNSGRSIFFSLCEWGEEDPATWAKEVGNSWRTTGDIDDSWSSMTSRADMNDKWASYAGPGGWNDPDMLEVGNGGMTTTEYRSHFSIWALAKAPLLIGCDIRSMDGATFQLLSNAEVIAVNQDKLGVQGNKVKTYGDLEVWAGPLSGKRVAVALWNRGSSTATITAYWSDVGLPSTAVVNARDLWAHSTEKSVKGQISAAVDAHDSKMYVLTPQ
Beta-galactosidase, sequence (P00722 whole entry): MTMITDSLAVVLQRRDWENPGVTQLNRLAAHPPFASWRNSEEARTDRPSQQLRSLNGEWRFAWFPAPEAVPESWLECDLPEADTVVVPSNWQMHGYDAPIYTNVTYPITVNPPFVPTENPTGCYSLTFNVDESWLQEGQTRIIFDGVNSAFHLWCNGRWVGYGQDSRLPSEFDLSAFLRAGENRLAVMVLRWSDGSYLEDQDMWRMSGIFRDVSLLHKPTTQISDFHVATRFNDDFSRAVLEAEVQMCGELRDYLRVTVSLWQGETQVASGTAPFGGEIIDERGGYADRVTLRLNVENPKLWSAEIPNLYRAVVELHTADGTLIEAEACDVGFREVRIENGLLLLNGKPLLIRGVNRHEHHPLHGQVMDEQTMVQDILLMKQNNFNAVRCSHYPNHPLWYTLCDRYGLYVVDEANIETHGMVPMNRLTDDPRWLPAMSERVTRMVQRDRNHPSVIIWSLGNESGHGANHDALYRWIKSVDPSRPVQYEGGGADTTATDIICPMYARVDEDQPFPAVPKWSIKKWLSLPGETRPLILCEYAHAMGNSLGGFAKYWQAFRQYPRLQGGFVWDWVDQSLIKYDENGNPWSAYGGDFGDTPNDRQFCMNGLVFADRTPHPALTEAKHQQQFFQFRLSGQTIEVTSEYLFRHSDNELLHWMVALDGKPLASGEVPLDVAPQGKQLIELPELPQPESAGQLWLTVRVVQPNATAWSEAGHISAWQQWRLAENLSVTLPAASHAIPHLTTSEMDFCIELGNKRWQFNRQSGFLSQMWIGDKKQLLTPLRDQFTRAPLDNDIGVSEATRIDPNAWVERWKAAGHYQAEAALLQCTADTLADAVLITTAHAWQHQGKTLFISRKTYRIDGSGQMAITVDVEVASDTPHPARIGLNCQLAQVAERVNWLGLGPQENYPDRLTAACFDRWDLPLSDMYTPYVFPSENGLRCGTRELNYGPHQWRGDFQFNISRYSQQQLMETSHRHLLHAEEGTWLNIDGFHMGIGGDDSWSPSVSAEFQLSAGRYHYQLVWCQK

| Structure (SMILES) | fold change (FC) [1] | IC50 [2] [µM] | IC50 [3] [µM] | Ki [4] [µM] | IC50 [5] [µM] | IC50 [6] [µM] | Activity [7] | IC50 [8] [µM] | Activity [9] |
| --- | --- | --- | --- | --- | --- | --- | --- | --- | --- |
| O=C(NC12CC3CC(CC(C3)C1)C2)O/N=C1\N[C@H](CO)[C@@H](O)[C@H](O)[C@H]1O | 1.35 | 8.37 | 1.85 | 1.52 | 14.4 | > 100 | Non-toxic | > 100 | – |
| CCCCCCCCCCCCNC(=O)O/N=C1\N[C@H](CO)[C@@H](O)[C@H](O)[C@H]1O | 1.93 | 5.74 | 0.7 | 0.14 | > 100 | > 100 | Non-toxic | > 100 | – |
| OC[C@H]1CNC[C@@H](O)[C@@H]1O [AFEGOSTAT] | 1.38 | – | – | – | > 100 | > 100 | Non-toxic | > 100 | – |
| O=C(Nc1ccc2nsnc2c1)O/N=C1\N[C@H](CO)[C@@H](O)[C@H](O)[C@H]1O | 1.23 | 12.5 | 5.75 | 6.38 | 6.21 | > 100 | Non-toxic | > 100 | – |
| CSc1ccc(NC(=O)O/N=C2\N[C@H](CO)[C@@H](O)[C@H](O)[C@H]2O)cc1 | 1.19 | 17.2 | 9.15 | 8.12 | 8.38 | > 100 | Non-toxic | > 100 | – |
| CCCCCCCCCN1C[C@H](O)[C@@H](O)[C@H](O)[C@H]1CO | – | – | – | – | > 100 | > 100 | Non-toxic | > 100 | – |
| O=C(Nc1ccccc1)O/N=C1\N[C@H](CO)[C@@H](O)[C@H](O)[C@H]1O | 1.49 | 19.3 | 12.5 | 11.5 | 31.1 | > 100 | Non-toxic | > 100 | – |
| O=C(Nc1c(Cl)cccc1C(F)(F)F)O/N=C1\N[C@H](CO)[C@@H](O)[C@H](O)[C@H]1O | 1.32 | 23.5 | 18.1 | 12.3 | 5.82 | > 100 | Non-toxic | > 100 | – |
| O=C(Nc1ccc(Oc2ccccc2)cc1)O/N=C1\N[C@H](CO)[C@@H](O)[C@H](O)[C@H]1O | 1.17 | 3.32 | 0.32 | 0.05 | 14.4 | > 100 | Non-toxic | > 100 | – |
| O=C(Nc1cccs1)O/N=C1\N[C@H](CO)[C@@H](O)[C@H](O)[C@H]1O | 1.36 | 13.2 | 0.84 | 0.64 | 2.68 | > 100 | Non-toxic | > 100 | – |
| CC(C)(C)NC(=O)O/N=C1\N[C@H](CO)[C@@H](O)[C@H](O)[C@H]1O | 1.3 | 21.5 | 29.1 | 30.1 | 46 | > 100 | Non-toxic | > 100 | – |
| OC[C@H]1N/C(=N/O)[C@H](O)[C@@H](O)[C@@H]1O | 1.28 | 65.8 | 5.84 | 4.28 | 80.3 | > 100 | Non-toxic | > 100 | inactive |
| O=C(Nc1cccc2ccccc12)O/N=C1\N[C@H](CO)[C@@H](O)[C@H](O)[C@H]1O | 1.47 | 1.43 | 7.21 | 7.94 | 10.7 | > 100 | Non-toxic | > 100 | – |
| O=C(Nc1c(F)cccc1F)O/N=C1\N[C@H](CO)[C@@H](O)[C@H](O)[C@H]1O | 1.35 | 21.9 | 16.8 | 17.4 | 7.59 | > 100 | Non-toxic | > 100 | – |
